Measured values from paper PMC9814550, “Exo-selective intermolecular Diels–Alder reaction by PyrI4 and AbnU on non-natural substrates” (Communications Chemistry, 2021).
Like-named read-outs stand apart in the source and are kept apart here.

Tests used:
[1] = target: T1, AbnU (Parafrankia colletiae, UniProt A0A1S1R073); assay: tryptophan fluorescence quenching (W114); assay type: binding
T1 construct: gene CC117_14200; N-terminal poly-His tag, pET28a(+), codon-optimised synthetic gene, E. coli; dimer
T1 sequence (A0A1S1R073 entry or part of it): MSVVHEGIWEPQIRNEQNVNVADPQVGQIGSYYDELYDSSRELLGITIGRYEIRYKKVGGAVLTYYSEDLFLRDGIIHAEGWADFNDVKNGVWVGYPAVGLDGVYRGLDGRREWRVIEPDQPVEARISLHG

[2] = target: T2, PyrI4 (Streptomyces rugosporus, UniProt K7QVW7, E65A); assay: LC-SRM of product 3a; assay type: biochemical; details: co-substrate 2
T2 construct: full length, N-terminal poly-His tag, pET28a(+), codon-optimised synthetic gene, E. coli
T2 sequence (K7QVW7 whole entry E65A): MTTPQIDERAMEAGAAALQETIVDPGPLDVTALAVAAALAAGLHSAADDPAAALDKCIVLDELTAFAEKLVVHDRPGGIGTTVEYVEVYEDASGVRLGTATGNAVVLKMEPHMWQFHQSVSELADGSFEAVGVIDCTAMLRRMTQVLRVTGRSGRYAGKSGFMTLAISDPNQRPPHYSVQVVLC

| Kd ([1]; read-out: KD) [µM] | SMILES | LC-SRM of product 3a [2] | Kd [1] [µM] |
| --- | --- | --- | --- |
| 1010 ± 205 | COC(=O)c1ccc(COC(=O)NC2C=CCCC2C(=O)N(C)C)cc1 (mixture of isomers) [3a] | – | – |
| 729 ± 117 | C=C/C=C/NC(=O)OCc1ccc(C(=O)OC)cc1 [1a, diene 1a] | Stereoselectivity is further compromised with E65A mutant | – |
| – | C=CC(=O)N(C)C [compound 2, N,N-dimethylacrylamide] | – | 6320 ± 280 |
